{
  "source": "patent US20170368176A1",
  "about": "(priority 2014, published 2017)",
  "key": {"[1]": {"conditions": "in vivo; cited from earlier work"}, "rat cornea": {"tested_on": "rat cornea", "design": "species or system Sprague-Dawley rats", "conditions": "in vivo"}, "α2-AR": {"tested_on": "α2-AR", "conditions": "cited from earlier work"}, "peripheral nerve": {"tested_on": "peripheral nerve", "conditions": "in vivo; cited from earlier work"}, "[2]": {"tested_on": "human corneal limbal epithelial (HCLE) cells"}, "rats [3]": {"tested_on": "rats", "conditions": "rat, in vivo"}, "[4]": {"conditions": "in vivo; cited from earlier work", "remark": "listed apart in the source"}, "rats [5]": {"tested_on": "rats", "conditions": "rat, in vivo; cited from earlier work"}},
  "note": "Values joined by “and” are separate entries in the source; they are usually repeats but may differ in a detail not shown here. Identical values can stand only once. “Also recorded” adds a separate entry of the source. Counter-ions that a name gives are not always drawn. Like-named read-outs stand apart in the source and are kept apart here.",
  "data": [
    {"smiles": "CC[N+](CC)(CC)CC(=O)Nc1c(C)cccc1C.[Br-]", "note": "[QX-314]", "values": [
      {"measurement": "duration of local anesthesia", "setting": "[1]", "value": "approximately 24 h"}
    ]},
    {"smiles": "Clc1cccc(Cl)c1N=C1NCCN1", "note": "[CLON, clonidine hydrochloride]", "values": [
      {"measurement": "effect of the added agent on the duration of corneal block from TTX (in words)", "setting": "rat cornea", "value": "failed to prolong corneal block"},
      {"measurement": "selectivity for the α2-AR, times less selective than dexmedetomidine", "setting": "α2-AR", "value": 8, "unit": "times"},
      {"measurement": "effective concentrations in peripheral nerve", "setting": "peripheral nerve", "value": 10, "unit": "µM"}
    ]},
    {"smiles": "COc1cc2nc(N3CCN(C(=O)c4ccco4)CC3)nc(N)c2cc1OC", "note": "[prazosin]", "values": [
      {"measurement": "effect of the added agent on the duration of corneal block from TTX (in words)", "setting": "rat cornea", "value": "did not shorten the duration of corneal block from TTX"}
    ]},
    {"smiles": "N=C1N[C@@H](O)[C@H]2[C@@H]3OC4(O)OC(C(O)[C@@]2(N1)[C@@H]4O)[C@]3(O)CO", "note": "(stereo partly drawn) [TTX, Tetrodotoxin]", "values": [
      {"measurement": "Block0.5 duration of corneal block", "setting": "rat cornea", "value": "12 ± 12.5", "unit": "min"},
      {"measurement": "Block2 duration of corneal block", "setting": "rat cornea", "value": "39 ± 22.7", "unit": "min"},
      {"measurement": "Block < 6 duration of corneal block", "setting": "rat cornea", "value": "117 ± 19.5", "unit": "min"},
      {"measurement": "animals in which block0.5 of any duration occurred", "setting": "rat cornea", "value": "5 of 14"},
      {"measurement": "block<6 durations compared with 15 mM proparacaine", "setting": "rat cornea", "value": "comparable to those from 15 mM proparacaine"}
    ]},
    {"smiles": "CNC[C@H](O)c1ccc(O)c(O)c1", "note": "[epinephrine]", "values": [
      {"measurement": "effect of the added agent on the duration of corneal block from TTX (in words)", "setting": "rat cornea", "value": "failed to prolong corneal block"}
    ]},
    {"smiles": "CNC[C@H](O)c1cccc(O)c1", "note": "[phenylephrine]", "values": [
      {"measurement": "effect of the added agent on the duration of corneal block from TTX (in words)", "setting": "rat cornea", "value": "at low concentrations (but not high concentrations) prolonged the duration of corneal block from TTX; also recorded: greatly prolonged the duration of corneal block by TTX"}
    ]},
    {"smiles": "Cc1cccc([C@H](C)c2cnc[nH]2)c1C", "note": "[DMED, (S)-4-[1-(2,3-Dimethylphenyl)ethyl]-3H-imidazole]", "values": [
      {"measurement": "Block0.5 (duration without blink response to 0.5 cm filament)", "setting": "rat cornea", "value": "0 ± 0", "unit": "min"},
      {"measurement": "Block2 (duration without blink response to 2 cm filament)", "setting": "rat cornea", "value": "0 ± 0", "unit": "min"},
      {"measurement": "Block<6 (duration without blink response to any filament less than 6 cm)", "setting": "rat cornea", "value": "0 ± 0", "unit": "min"},
      {"measurement": "corneal anesthesia (in words)", "setting": "rat cornea", "value": "did not produce any degree of corneal anesthesia"},
      {"measurement": "effect of increasing doses of DMED on block (FIG. 4)", "setting": "rat cornea", "value": "do not increase block further"},
      {"measurement": "HCLE cell survival compared to cells not exposed to drug", "setting": "[2]", "value": "not reduced"},
      {"measurement": "sedation, dose response of DMED (FIG. 4)", "setting": "rats [3]", "value": "sedation results from the higher two doses"},
      {"measurement": "half-life", "setting": "[4]", "value": "approximately 2 hours"},
      {"measurement": "effective concentrations in peripheral nerve", "setting": "peripheral nerve", "value": 2.7, "unit": "µM"},
      {"measurement": "perineural doses that produce undesired sedation", "setting": "rats [5]", "value": "above 6 μg/kg"}
    ]},
    {"smiles": "CCN(c1ccccc1)c1cc(NC)[n+](C)c(C)n1.[Cl-]", "note": "[ZD7288, 4-(N-Ethyl-N-phenylamino)-1,2 dimethyl-6-(methylamino) pyrimidinium chloride]", "values": [
      {"measurement": "effect of the added agent on the duration of corneal block from TTX (in words)", "setting": "rat cornea", "value": "prolongs the duration of corneal block from TTX"}
    ]},
    {"smiles": "CCCOc1ccc(C(=O)OCCN(CC)CC)cc1N", "note": "[PPC, Proparacaine hydrochloride]", "values": [
      {"measurement": "animals in which block0.5 occurred", "setting": "rat cornea", "value": "all animals"},
      {"measurement": "Block0.5 (duration without blink response to 0.5 cm filament)", "setting": "rat cornea; hydrochloride", "value": "18 ± 6", "unit": "min"},
      {"measurement": "Block2 (duration without blink response to 2 cm filament)", "setting": "rat cornea; hydrochloride", "value": "35 min and 35 ± 10 min"},
      {"measurement": "Block<6 (duration without blink response to any filament less than 6 cm)", "setting": "rat cornea; hydrochloride", "value": "54 min and 54 ± 8 min"}
    ]}
  ]
}
